Assay results from PubChem BioAssay AID2060499 (Molecular Pharmacology Branch, DTP, NCI, 2025).

System: 777334-354-R2-J4-PDC tumor spheroids with HUVEC/MSC, viability
Assay: Anticancer human tumor 777334-354-R2-J4-PDC patient-derived pancreatic adenocarcinoma cell line growth inhibition [GQUAD]
Settings: for IC50: curve of first compound; for viability, T/C: stronger effect = lower value
Method in brief: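 Tumor cells were grown as complex spheroids with HUVEC endothelial cells and mesenchymal stem cells as stroma. G-quadruplex stabilizers were combined with targeted agents over half-log dilutions from near the clinical Cmax, or from 10 microM.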

[1] = second compound 0.0316 µM, first compound 0.0316 µM
[2] = second compound 0.0316 µM, first compound 0.1 µM
[3] = second compound 0.0316 µM, first compound 0.316 µM
[4] = second compound 0.0316 µM, first compound 1 µM
[5] = second compound 0.0316 µM, first compound 3.16 µM
[6] = second compound 0.0316 µM, first compound 10 µM
[7] = second compound 0.1 µM, first compound 0.0316 µM
[8] = second compound 0.1 µM, first compound 0.1 µM
[9] = second compound 0.1 µM, first compound 0.316 µM
[10] = second compound 0.1 µM, first compound 1 µM
[11] = second compound 0.1 µM, first compound 3.16 µM
[12] = second compound 0.1 µM, first compound 10 µM
[13] = second compound 0.316 µM, first compound 0.0316 µM
[14] = second compound 0.316 µM, first compound 0.1 µM
[15] = second compound 0.316 µM, first compound 0.316 µM
[16] = second compound 0.316 µM, first compound 1 µM
[17] = second compound 0.316 µM, first compound 3.16 µM
[18] = second compound 0.316 µM, first compound 10 µM
[19] = second compound 1 µM, first compound 0.0316 µM
[20] = second compound 1 µM, first compound 0.1 µM
[21] = second compound 1 µM, first compound 0.316 µM
[22] = second compound 1 µM, first compound 1 µM
[23] = second compound 1 µM, first compound 3.16 µM
[24] = second compound 1 µM, first compound 10 µM
[25] = second compound 3.16 µM, first compound 0.0316 µM
[26] = second compound 3.16 µM, first compound 0.1 µM
[27] = second compound 3.16 µM, first compound 0.316 µM
[28] = second compound 3.16 µM, first compound 1 µM
[29] = second compound 3.16 µM, first compound 3.16 µM
[30] = second compound 3.16 µM, first compound 10 µM
[31] = second compound 10 µM, first compound 0.0316 µM
[32] = second compound 10 µM, first compound 0.1 µM
[33] = second compound 10 µM, first compound 0.316 µM
[34] = second compound 10 µM, first compound 1 µM
[35] = second compound 10 µM, first compound 3.16 µM
[36] = second compound 10 µM, first compound 10 µM
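Also: spheroids exposed to compounds for 7 days before readout.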

`O=c1[nH]cc(F)c(=O)[nH]1` + CN(C)c1ccc(Nc2c3ccc(NC(=O)CCN4CCCC4)cc3nc3cc(NC(=O)CCN4CCCC4)ccc23)cc1 gave an IC50 (second compound 0.0316 µM) greater than 10 µM, an IC50 (second compound 0.1 µM) greater than 10 µM and an IC50 (second compound 0.316 µM) greater than 10 µM. For the same compound, the IC50 (second compound 1 µM) was greater than 10 µM, the IC50 (second compound 3.16 µM) was greater than 10 µM and the IC50 (second compound 10 µM) was 8.21 µM. The viability, T/C [1] was 91.7%, the viability, T/C [2] was 92% and the viability, T/C [3] was 99.9%. It also gave a viability, T/C [4] of 84.2%, a viability, T/C [5] of 66.7% and a viability, T/C [6] of 55.3%. It also gave a viability, T/C [7] of 96.8%, a viability, T/C [8] of 96.8% and a viability, T/C [9] of 92.3%. It also gave a viability, T/C [10] of 90.7%, a viability, T/C [11] of 80.3% and a viability, T/C [12] of 60%. It also gave a viability, T/C [13] of 92.6%, a viability, T/C [14] of 91% and a viability, T/C [15] of 96.3%. The viability, T/C [16] was 87.1%, the viability, T/C [17] was 72.4% and the viability, T/C [18] was 54.7%. For the same compound, the viability, T/C [19] was 99.3%, the viability, T/C [20] was 88.5% and the viability, T/C [21] was 82.8%. For the same compound, the viability, T/C [22] was 70.6%, the viability, T/C [23] was 65.9% and the viability, T/C [24] was 55%. The viability, T/C [25] was 93.2%, the viability, T/C [26] was 81.6% and the viability, T/C [27] was 79.2%. For the same compound, the viability, T/C [28] was 77.8%, the viability, T/C [29] was 71.1% and the viability, T/C [30] was 54.2%. For the same compound, the viability, T/C [31] was 76.6%, the viability, T/C [32] was 79.1% and the viability, T/C [33] was 76.8%. It also gave a viability, T/C [34] of 71.4%, a viability, T/C [35] of 60.9% and a viability, T/C [36] of 47.7%.
`O=c1[nH]cc(F)c(=O)[nH]1` + Cc1[nH]c2ccc(F)cc2c1-c1nc2c3cccnc3c3ncccc3c2[nH]1 showed an IC50 (second compound 0.0316 µM) greater than 10 µM, an IC50 (second compound 0.1 µM) greater than 10 µM and an IC50 (second compound 0.316 µM) greater than 10 µM. It also gave an IC50 (second compound 1 µM) greater than 10 µM, an IC50 (second compound 3.16 µM) of less than 0.0316 µM and an IC50 (second compound 10 µM) of less than 0.0316 µM. For the same compound, the viability, T/C [1] was 95.5%, the viability, T/C [2] was 93.3% and the viability, T/C [3] was 105%. For the same compound, the viability, T/C [4] was 82.5%, the viability, T/C [5] was 71.3% and the viability, T/C [6] was 61.5%. The viability, T/C [7] was 113%, the viability, T/C [8] was 100% and the viability, T/C [9] was 103%. The viability, T/C [10] was 72%, the viability, T/C [11] was 80.8% and the viability, T/C [12] was 61.7%. It also gave a viability, T/C [13] of 89.1%, a viability, T/C [14] of 103% and a viability, T/C [15] of 86.1%. It also gave a viability, T/C [16] of 76.8%, a viability, T/C [17] of 79.4% and a viability, T/C [18] of 67.5%. It also gave a viability, T/C [19] of 74.7%, a viability, T/C [20] of 89.5% and a viability, T/C [21] of 72.9%. It also gave a viability, T/C [22] of 61.1%, a viability, T/C [23] of 68.7% and a viability, T/C [24] of 53.3%. The viability, T/C [25] was 44.6%, the viability, T/C [26] was 38.4% and the viability, T/C [27] was 31.2%. The viability, T/C [28] was 28.8%, the viability, T/C [29] was 27.7% and the viability, T/C [30] was 25%. It also gave a viability, T/C [31] of 29.6%, a viability, T/C [32] of 29.1% and a viability, T/C [33] of 24.5%. The viability, T/C [34] was 17.4%, the viability, T/C [35] was 16.4% and the viability, T/C [36] was 18.5%.
`C=CCn1c(=O)c2cnc(Nc3ccc(N4CCN(C)CC4)cc3)nc2n1-c1cccc(C(C)(C)O)n1` + Cc1[nH]c2ccc(F)cc2c1-c1nc2c3cccnc3c3ncccc3c2[nH]1 was tested, and the IC50 (second compound 0.0316 µM) was 0.725 µM, the IC50 (second compound 0.1 µM) was 0.869 µM and the IC50 (second compound 0.316 µM) was 0.738 µM. It also gave an IC50 (second compound 1 µM) of 0.71 µM, an IC50 (second compound 3.16 µM) of 0.0316 µM and an IC50 (second compound 10 µM) of less than 0.0316 µM. The viability, T/C [1] was 100%, the viability, T/C [2] was 106% and the viability, T/C [3] was 79.5%. For the same compound, the viability, T/C [4] was 39.5%, the viability, T/C [5] was 30.6% and the viability, T/C [6] was 34.6%. For the same compound, the viability, T/C [7] was 87.5%, the viability, T/C [8] was 92.9% and the viability, T/C [9] was 78%. It also gave a viability, T/C [10] of 46.6%, a viability, T/C [11] of 33.1% and a viability, T/C [12] of 34.5%. For the same compound, the viability, T/C [13] was 94.3%, the viability, T/C [14] was 99.8% and the viability, T/C [15] was 82.8%. The viability, T/C [16] was 38.3%, the viability, T/C [17] was 36.7% and the viability, T/C [18] was 30.9%. The viability, T/C [19] was 75.3%, the viability, T/C [20] was 77.5% and the viability, T/C [21] was 73.1%. The viability, T/C [22] was 40.1%, the viability, T/C [23] was 34% and the viability, T/C [24] was 28.1%. It also gave a viability, T/C [25] of 50.4%, a viability, T/C [26] of 36.9% and a viability, T/C [27] of 50.8%. It also gave a viability, T/C [28] of 12.8%, a viability, T/C [29] of 14% and a viability, T/C [30] of 14.2%. For the same compound, the viability, T/C [31] was 31.7%, the viability, T/C [32] was 27.5% and the viability, T/C [33] was 24.7%. The viability, T/C [34] was 14.8%, the viability, T/C [35] was 14.1% and the viability, T/C [36] was 11.2%.
Compound `CC(C)n1c(=O)n(C)c2cnc3cc(F)c(-c4ccc(OCCCN5CCCCC5)nc4)cc3c21` + Cc1[nH]c2ccc(F)cc2c1-c1nc2c3cccnc3c3ncccc3c2[nH]1 has an IC50 (second compound 0.0316 µM) greater than 10 µM, an IC50 (second compound 0.1 µM) greater than 10 µM and an IC50 (second compound 0.316 µM) greater than 10 µM. For the same compound, the IC50 (second compound 1 µM) was greater than 10 µM, the IC50 (second compound 3.16 µM) was less than 0.0316 µM and the IC50 (second compound 10 µM) was less than 0.0316 µM. The viability, T/C [1] was 106%, the viability, T/C [2] was 108% and the viability, T/C [3] was 113%. It also gave a viability, T/C [4] of 115%, a viability, T/C [5] of 115% and a viability, T/C [6] of 96%. For the same compound, the viability, T/C [7] was 105%, the viability, T/C [8] was 89.5% and the viability, T/C [9] was 131%. The viability, T/C [10] was 103%, the viability, T/C [11] was 118% and the viability, T/C [12] was 98%. The viability, T/C [13] was 101%, the viability, T/C [14] was 99.5% and the viability, T/C [15] was 90.3%. For the same compound, the viability, T/C [16] was 110%, the viability, T/C [17] was 99.1% and the viability, T/C [18] was 93.5%. The viability, T/C [19] was 90.8%, the viability, T/C [20] was 84.7% and the viability, T/C [21] was 90.6%. It also gave a viability, T/C [22] of 101%, a viability, T/C [23] of 93.8% and a viability, T/C [24] of 70.8%. The viability, T/C [25] was 30.8%, the viability, T/C [26] was 50.4% and the viability, T/C [27] was 40%. It also gave a viability, T/C [28] of 33.1%, a viability, T/C [29] of 28.5% and a viability, T/C [30] of 19.9%. It also gave a viability, T/C [31] of 28.7%, a viability, T/C [32] of 25.2% and a viability, T/C [33] of 41.9%. It also gave a viability, T/C [34] of 28.4%, a viability, T/C [35] of 27.1% and a viability, T/C [36] of 13.5%.
